Results taken from patent US12331071B2, “Bile acid derivative salt, crystal structure thereof, preparation method therefor and use thereof” (XI'AN BIOCARE PHARMA LTD., priority 2020, dated 2025).
Where a name gives a salt, the structure may show the parent alone.

Key:
[1] = Dynamic vapor sorption (DVS) hygroscopicity analysis; type: physicochemical
Procedure: The obtained solid form of the salt was analyzed by dynamic vapor sorption (DVS), using a dynamic vapor sorption analyzer with a model IGA Sorp (Hidentity Isochema). The samples are measured in gradient mode and tested over a humidity range of 0% to 90% with 10% humidity increments for each gradient.
The compound has strong hygroscopicity and is not conducive to preservation. The obtained salt solid form was analyzed by using dynamic vapor sorption (DVS). The hygroscopicity comparison between the hydrochloride salt crystalline form A and the mesylate salt crystalline form C is compared.

[2] = Stability of crystalline form during thermal treatment and grinding (XRPD); type: physicochemical
Procedure: The crystalline form A was heated to 100° C. through programmed temperature or kept at 80° C. for 24 h in DSC.
A certain amount of hydrochloride salt crystalline form A was added to a mortar and ground at room temperature for 5 minutes.

[3] = test system: 17α-Ethinylestradiol (E2-17a) induced cholestasis in rats; assay: 17α-ethinylestradiol (E2-17α) induced cholestasis in rats; type: in vivo
Procedure: Experimental method: E2-17α was administered by subcutaneous injection in the neck. The test compounds were administered by gavage for 7 days after modeling. After the last day of administration, the rats were fasted but had access to water. The experiment was performed on the next day, and treatment was performed after 24 h. The rats were anesthetized by intraperitoneal injection of 20% urethane (7 ml/kg). After anesthesia, the rats were fixed on a rat board to make a median abdominal incision from the xiphoid process of the upper abdomen downward, with a 3-4 cm incision. The common bile duct was isolated. A PE-10 polyethylene catheter (inner diameter: 0.28 mm, outer diameter: 0.61 mm) was used for intubation operation of the bile ducts. During the operation, the body […] was maintained between 37° C. and 38° C. with warm lamps and air conditioners to prevent changes in bile flow rate at low temperature. After the intubation was completed, the skin was sutured to prevent the water evaporation from the abdominal cavity. The other end of the bile duct cannula was drawn out and flowed into a fixed 0.2 mL collection tube, to consecutively perform collection every 15 min for 8 times.
Before the experiment, the weight of the bile collection tube was accurately weighed and recorded as B1. After the bile collection was completed in the experiment, the total weight of the bile and the collection tube was weighed and recorded as A2. The weight of bile in the tube was calculated by subtracting B1 from A2, and converted into volume according to 1 g/mL. The amount of bile secretion of rats in each group was expressed as mean±standard deviation (Mean±S.D). Bile Flow Rate (μL/Kg/Min)=(A2−B1)×1000000/Body Weight
The blood samples were allowed to stand for 2 h at room temperature, and centrifuged at 4000 rpm for 15 min. The serum was routinely separated to detect ALT, AST, and ALP. The left serum was aliquoted and frozen at −20° C. for subsequent detection.

[4] = test system: AMLN diet-induced NASH in ob/ob mice; assay: AMLN diet-induced NASH in ob/ob mice; type: in vivo
Procedure: Test method: (1) C57 mice and ob/ob mice were adaptively reared for 1 week. (1) The C57 mice were given LFD diet (normal mouse group), and the ob/ob mice were divided into two groups: (2) 15 mice were given LFD diet (blank control group), and the rest were given AMLN diet (containing 40 kcal % fat, 20 kcal % fructose and 2% cholesterol) for 14 weeks. (2) Sampling for pathology detection: C57+LFD diet group (n=3), ob/ob+ AMLN diet group (n=3), liver lesions were evaluated according to NAFLD activity score to estimate the degree of model construction; the mice in the ob/ob+ AMLN diet group were tested for fasting blood glucose (FBG); and blood was collected from the eye socket. The serum was separated, and ALT and insulin (INS) in the serum were detected. (3) Insulin resistance (HOMA-IR) was calculated according to HOMA-IR═INS(μ/mL)×FBG(mM)/22.5.

[5] = AMLN diet-induced Lep^ob/Lep^ob mice NASH model

Structure (SMILES): CC[C@@H]1C2C[C@H](O)CC[C@]2(C)C2CC[C@@]3(C)C(CC[C@@H]3[C@H](C)CCO[P@@]3(=O)OCC[C@@H](c4ccncc4)O3)C2[C@@H]1O (stereo partly drawn) [hydrochloride salt crystalline form A]
- Hygroscopicity at low humidity ([1]; relative humidity lower than 75%): small
- Hygroscopicity (DVS results) ([1]; relative humidity of 80%): hygroscopicity was 3.569%
- overall hygroscopicity, compared between salt forms ([1]; versus mesylate salt crystalline form C): lower than that of mesylate salt crystalline form C
- XRPD after grinding ([2]; ground in a mortar at room temperature for 5 minutes): main diffraction peaks of the obtained samples have not changed
- XRPD after thermal treatment ([2]; heated to 100° C. through programmed temperature or kept at 80° C. for 24 h in DSC): main diffraction peaks of the obtained samples have not change

Structure (SMILES): CC[C@@H]1C2C[C@H](O)CC[C@]2(C)C2CC[C@@]3(C)C(CC[C@@H]3[C@H](C)CCO[P@@]3(=O)OCC[C@@H](c4ccncc4)O3)C2[C@@H]1O (stereo partly drawn) [hydrochloride salt of Compound 1]
- strength for promoting bile excretion, compared with the E2-17α group ([3]; gavage for 7 days): significantly increased
- effect of promoting bile excretion, compared with Compound 1 ([3]; gavage for 7 days, hydrochloride salt prepared in Example 3): superior effect of promoting bile excretion over Compound 1
- biliary excretion amount after 120 minutes ([3]; versus model group (E2-17α group)): still higher than that in the model group
- hepatocyte ballooning [4, 5]: reduce
- intralobular inflammation [4, 5]: reduce
- total score of NASH model ([4]; AMLN diet-induced Lep^ob/Lep^ob mouse NASH model): significantly reduce
- level of ALT in the serum ([4]; NASH mice): significantly reduce
- level of AST in the serum ([4]; NASH mice): significantly reduce
- liver fibrosis ([4]; NASH mice): significantly reduce

Structure (SMILES): CC[C@@H]1C2C[C@H](O)CC[C@]2(C)C2CC[C@@]3(C)C(CC[C@@H]3[C@H](C)CCO[P@@]3(=O)OCC[C@@H](c4ccncc4)O3)C2[C@@H]1O.CS(=O)(=O)O (stereo partly drawn) [mesylate salt crystalline form C]
- solid state (XRPD) after DVS ([1]; after moisture absorption): changes to an amorphous form
